Test results as given in patent US7169559B2, “LDL receptor-related proteins 1 and 2 and treatment of bone or cartilage conditions” (Fonterra Corporate Research and Development Ltd., priority 2002, dated 2007).

How the values were obtained:
[1] = system: cultured osteoblastic cells; assay: osteoblast proliferation (mitogenic/osteogenic effect); assay type: cell-based, rat, mouse, and human
Procedure: Osteoblasts were isolated from 20-day old fetal rat calvariae as previously described (Cornish et al. (1999) Amer. J. Physiol-Endocrinol. Metab. 277:E779–E783). Briefly, calvariae were excised and the frontal and parietal bones, free of suture and periosteal tissue, were collected. After washing, the calvariae were treated twice with 3 mL of 1 mg/mL collagenase for 7 minutes at 37° C. After discarding the supernatants from these two digestions, the calvariae were treated a further twice with 3 mL of 2 mg/mL collagenase (30 mins, 37° C.). The supernatants of the latter two digestions were pooled, centrifuged, and the cells washed. Cells were grown to confluence and then subcultured into 24 well plates. Cells were growth arrested in minimum essential medium (MEM)/0.1% bovine serum albumin for 24 h before harvest.
The human osteoblast-like osteosarcoma cell line SaOS-2 was maintained in DMEM (GIBCO 12100-046) supplemented with 2.2 g/L NaHCO3, 10% FBS, and 10 ml/L penicillin-streptomycin (GIBCO 15140-122). Cells were plated in 75 cm^2 flasks and when confluent used for total RNA isolation or proliferation assays.

[2] = system: bacterial; details: cited from earlier work

Substance | mitogenic effect on osteoblasts [1] | osteogenic effect / osteogenic activity [1] | bacterial killing [2]
Transferrin: Transferrin, compared with lactoferrin as mitogen on osteoblasts [reference compound] | not a potent mitogen | – | –
Lactoferricin | – | only a modest osteogenic effect | effective in bacterial killing
